Data published in patent publication US11179412B2, “Methods of treating conditions involving elevated inflammatory response” (University of Pittsburgh—Of the Commonwealth System of …, priority 2017, dated 2021).
Where a name gives a salt, the structure may show the parent alone.

test system: STING activation (IFNβ release) in iBMDMs; assay: IFNβ release ELISA after STING ligand (or LPS) stimulation, iBMDMs; assay type: cell-based, mouse; conditions: not given
Procedure, shortened: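 iBMDMs were stimulated with a STING ligand such as 3′3′-cGAMP, or with LPS. Secreted IFNβ in culture medium was measured by commercial mouse or human IFNβ ELISA.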

| SMILES | fold increase in IFN-β release |
| --- | --- |
| OCCOc1ccc(/C(=C(/CCCl)c2ccccc2)c2ccccc2)cc1 [Ospemifene] | 0.10 fold |

same assay, conditions: iBMDMs; 3′3′-cGAMP 10 μg/ml, 16 hours; compound 10 μM

| SMILES | fold increase in IFN-β release |
| --- | --- |
| Cl.Cl.NC1(c2ccc(-c3nc4ccn5c(=O)[nH]nc5c4cc3-c3ccccc3)cc2)CCC1 [MK-2206 2HCl] | 1.02 fold |
| C[C@](O)(COc1ccc(C#N)cc1)C(=O)Nc1ccc(C#N)c(C(F)(F)F)c1 [MK-2866 (GTx-024)] | 1.47 fold |
| O=C(O)Cn1nnc(-c2cc(N3CCC(Oc4cc(F)ccc4Br)CC3)no2)n1 [MK-8245] | 0.42 fold |
| COc1ccc(CNCc2cccc3ccccc23)cc1.Cl [ML133 HCl] | 0.59 fold |
| CCCC(=O)Nc1cccc(NC(=O)c2ccccc2Br)c1 [ML161] | 0.95 fold |
| Cc1cnc(-c2ccccc2C(C)C)nc1NCc1ccc(-n2ccnn2)cc1 [ML323] | 0.43 fold |
| COc1ccc(-c2cnc3c(-c4cccc5ncccc45)cnn3c2)cc1 [ML347] | 1.95 fold |
| CC(C)C[C@H](NC(=O)CNC(=O)c1cc(Cl)ccc1Cl)B(O)O [MLN2238] | 4.76 fold |
| O=C(O)c1ccc(Nc2ncc3c(n2)-c2ccc(Cl)cc2C(c2c(F)cccc2F)=NC3)cc1 [MLN8054] | 0.77 fold |
| CCC(CC)(NC(=O)C(C)C)C(=O)N[C@@H](CCCN=C(N)N)C(=O)NC1(C(=O)NC(c2ccc(F)cc2)c2ccc(F)cc2)CCCC1 [MM-102] | 2.32 fold |
| S=C=Nc1cccc(NC(=S)NCCCCNC(=S)Nc2cccc(N=C=S)c2)c1 [MRS 2578] | 1.31 fold |
| COc1cc(-n2c(=S)[nH]c3ccccc3c2=O)c(Cl)cc1Cl [Mdivi-1] | 2.10 fold |
| CC12CC3CC(C)(C1)CC(N)(C3)C2 [Memantine HCl] | 2.60 fold |
| CN(Cc1cnc2nc(N)nc(N)c2n1)c1ccc(C(=O)N[C@@H](CCC(=O)O)C(=O)O)cc1 [Methotrexate] | 0.68 fold |
| CCN(CC)CCNC(=O)c1cc(Cl)c(N)cc1OC [MetoclopraMide HCl] | 2.14 fold |
| Nc1nc(CC(=O)Nc2ccc(CCNC[C@H](O)c3ccccc3)cc2)cs1 [Mirabegron] | 0.69 fold |
| O=C(NCCN1CCOCC1)c1ccc(Cl)cc1 [Moclobemide (Ro 111163), Moclobemide] | 1.88 fold |
| FC(F)(F)c1ccc(/C=C/c2nc(COc3ccc(CCCCn4ccnn4)cc3)co2)cc1 [Mubritinib (TAK 165), Mubritinib] | 0.56 fold |
| Cc1cc(C(N)=O)ccc1-n1c(CCC(=O)O)ccc1-c1ccc(-n2ccnc2)cc1 [N6022] | 0.75 fold |
| CCCCCCCCCCCCCCCCn1cc[n+](Cc2ccccc2)c1C.[I-] [NH125] | 0.11 fold |
| Cc1cc(OCc2nnc(SC3CCCC3)n2-c2cccnc2)ccc1-c1ccc(S(C)(=O)=O)cc1 [NMS-873] | 1.90 fold |
| CN1CCN(c2ccc(OC(F)(F)F)c(Nc3ncc4c(n3)-c3c(c(C(N)=O)nn3CCO)CC4)c2)CC1 [NMS-P937 (NMS1286937)] | 0.73 fold |
| CC(C)(Cc1ccc2ccccc2c1)NC[C@@H](O)COc1cccc(Cl)c1C#N [NPS-2143] | 0.99 fold |
| Cc1ccc(S(=O)(=O)c2ccc([N+](=O)[O-])o2)cc1 [NSC697923] | 0.51 fold |
| CCN(CC)CCCC(C)Nc1nc(C)cc(Nc2ccc3nc(C)cc(N)c3c2)n1 (stereo not drawn) [NSC 23766] | 1.30 fold |

| SMILES | fold increase in IFN-β release |
| --- | --- |
| C/C(=N\NC(=S)N1CCC1)c1ccccn1 [NSC 319726] | 2.43 fold |
| CCCC(C)NC(=O)c1ccc(Cl)c(Cl)c1 (stereo not drawn) [NSC 405020] | 1.24 fold |
| Nc1ncnc2c1c(-c1cccc(OCc3ccccc3)c1)cn2C1CC(CN2CCCC2)C1 (stereo not drawn) [NVP-ADW742] | 0.61 fold |
| COc1ccccc1N1CCN(CC(O)COc2cccc3ccccc23)CC1 (stereo not drawn) [Naftopidil] | 2.46 fold |
| O=C1CC[C@@]2(O)[C@H]3Cc4ccc(O)c5c4[C@@]2(CCN3CC2CC2)[C@H]1O5 [Naltrexone HCl] | 3.12 fold |
| COc1ccc2cc([C@H](C)C(=O)O)ccc2c1 [Naproxen] | 1.46 fold |
| OC(CNCC(O)C1CCc2cc(F)ccc2O1)C1CCc2cc(F)ccc2O1 (stereo not drawn) [Nebivolol] | 0.75 fold |
| CN1C(=O)C(Cc2c[nH]c3ccccc23)NC1=S (stereo not drawn) [Necrostatin-1] | 1.60 fold |
| Cc1cn(-c2cc(NC(=O)c3ccc(C)c(Nc4nccc(-c5cccnc5)n4)c3)cc(C(F)(F)F)c2)cn1 [Nilotinib (AMN-107), Nilotinib] | 0.77 fold |
| COC(=O)C1=C(C#N)NC(C)=C(C(=O)OC(C)C)C1c1cccc([N+](=O)[O-])c1 (stereo not drawn) [Nilvadipine] | 1.79 fold |
| C[C@]1(O)C[C@@H](c2nc(-c3ccc4ccc(-c5ccccc5)nc4c3)c3c(N)nccn32)C1 [OSI-906 (Linsitinib), Linsitinib] | 0.66 fold |
| NCC(=O)Nc1ccc(-n2nc(C(F)(F)F)cc2-c2ccc3c(ccc4ccccc43)c2)cc1 [OSU-03012 (AR-12)] | 0.31 fold |
| Cc1sc2c(c1C)C(c1ccc(Cl)cc1)=N[C@@H](CC(=O)Nc1ccc(O)cc1)c1nnc(C)n1-2 [OTX015] | 0.43 fold |
| CC(C)(F)C[C@H](N[C@@H](c1ccc(-c2ccc(S(C)(=O)=O)cc2)cc1)C(F)(F)F)C(=O)NC1(C#N)CC1 [Odanacatib (MK-0822), Odanacatib] | 0.90 fold |
| CC[C@@H]1/C=C/C=C/C[C@H](C)[C@H](O)[C@](C)(O)C(=O)[C@H](C)[C@@H](O)[C@H](C)C(=O)[C@H](C)[C@@H](O)[C@H](C)/C=C/C(=O)O[C@H]2[C@@H](C)[C@@H](CC1)O[C@@]1(CC[C@@H](C)[C@@H](C[C@H](C)O)O1)[C@@H]2C [Oligomycin A] | 2.49 fold |
| CCc1c(C(=O)NCCc2ccc(N3CCCCC3)cc2)[nH]c2ccc(Cl)cc12 [Org 27569] | 1.74 fold |
| C[C@@H]1O[C@@H](O[C@H]2C[C@@H](O)[C@]3(CO)[C@H]4[C@H](O)C[C@]5(C)[C@@H](C6=CC(=O)OC6)CC[C@]5(O)[C@@H]4CC[C@]3(O)C2)[C@H](O)[C@H](O)[C@H]1O [Ouabain] | 1.08 fold |
| NC(=O)N1c2ccccc2CC(=O)c2ccccc21 [Oxcarbazepine] | 5.22 fold |
| Cc1cc(C(C)(C)C)c(O)c(C)c1CC1=NCCN1 [Oxymetazoline HCl] | 1.16 fold |
| O=C(O)/C=C/c1ccc(Cn2ccnc2)cc1 [Ozagrel] | 0.11 fold |
| CC(=O)c1cc([N+](=O)[O-])c(Sc2ccc(F)cc2F)s1 [P22077] | 0.35 fold |
| C=CCc1cccc(/C=N/NC(=O)CN2CCN(Cc3ccccc3)CC2)c1O [PAC-1] | 0.17 fold |
| O=C(NOCC1CC1)c1ccc(F)c(F)c1Nc1ccc(I)cc1Cl [PD184352 (CI-1040)] | 0.94 fold |
| O=C(NOC[C@H](O)CO)c1ccc(F)c(F)c1Nc1ccc(I)cc1F [PD0325901] | 0.39 fold |

same assay, conditions: iBMDMs; 3′3′-cGAMP 10 μg/ml, 16 hours; compound 10 μM; HCl

| SMILES | fold increase in IFN-β release |
| --- | --- |
| O=C(O)/C=C/c1ccc(Cn2ccnc2)cc1 [Ozagrel HCl] | 2.13 fold |
